What follows are compounds tested against T1, RET (Homo sapiens, UniProt P07949) (assay: Inhibition of RET kinase activity, recombinant RET method (Kinase-Glo)). Conditions: RET 2 μg/ml, poly-EY4 substrate, 20 μM ATP, two hours at 30° C.
T1 construct: purchased Upstate 14-570MG
Type: biochemical
How it was run: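 Recombinant RET at 2 μg/ml in 20 mM MOPS/NaOH pH 7.0, 1 mM EDTA, 5% glycerol, 0.01% Brij35, 0.1% 2-mercaptoethanol, 1 mg/ml BSA; compounds 10 nM–30 μM final.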

T1 sequence (P07949 29-1114): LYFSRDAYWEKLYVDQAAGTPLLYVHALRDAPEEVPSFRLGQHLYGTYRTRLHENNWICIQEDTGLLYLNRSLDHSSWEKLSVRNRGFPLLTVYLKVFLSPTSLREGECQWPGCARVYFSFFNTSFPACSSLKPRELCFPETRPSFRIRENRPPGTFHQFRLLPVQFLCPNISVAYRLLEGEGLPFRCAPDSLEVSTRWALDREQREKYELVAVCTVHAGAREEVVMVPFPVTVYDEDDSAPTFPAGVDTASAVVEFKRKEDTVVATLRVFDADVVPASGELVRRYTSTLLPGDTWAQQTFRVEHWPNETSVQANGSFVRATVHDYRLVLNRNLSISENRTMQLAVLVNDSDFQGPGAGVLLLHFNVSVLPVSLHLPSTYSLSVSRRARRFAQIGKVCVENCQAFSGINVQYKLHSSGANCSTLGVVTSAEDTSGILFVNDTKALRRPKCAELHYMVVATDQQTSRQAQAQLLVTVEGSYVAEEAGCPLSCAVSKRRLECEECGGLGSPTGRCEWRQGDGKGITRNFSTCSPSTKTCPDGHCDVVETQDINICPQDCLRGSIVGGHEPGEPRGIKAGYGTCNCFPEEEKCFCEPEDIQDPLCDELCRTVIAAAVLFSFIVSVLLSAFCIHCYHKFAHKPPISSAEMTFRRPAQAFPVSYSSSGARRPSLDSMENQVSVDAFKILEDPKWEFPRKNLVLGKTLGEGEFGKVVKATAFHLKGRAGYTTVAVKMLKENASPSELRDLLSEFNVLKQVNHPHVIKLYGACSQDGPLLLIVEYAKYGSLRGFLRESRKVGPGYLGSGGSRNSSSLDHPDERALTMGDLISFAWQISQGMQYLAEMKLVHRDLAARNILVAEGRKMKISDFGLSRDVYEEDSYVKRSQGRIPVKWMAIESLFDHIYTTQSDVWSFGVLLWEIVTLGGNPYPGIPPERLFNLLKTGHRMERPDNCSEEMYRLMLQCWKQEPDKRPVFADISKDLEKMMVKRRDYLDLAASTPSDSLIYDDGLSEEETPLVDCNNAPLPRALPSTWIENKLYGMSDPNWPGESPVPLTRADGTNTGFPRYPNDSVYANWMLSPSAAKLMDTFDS

Row | IC50 [µM] | Structure (SMILES)
1 | 0.1 to 1 | CCCOC(=O)c1c[nH]c2c(=O)[nH]c3ccc(S(=O)(=O)N(C)C4CCSCC4)cc3c12 [Compound 131, 8-[Methyl-(tetrahydro-thiopyran-4-yl)-sulfamoyl]-4-oxo-4,5-dihydro-3H-pyrrolo[2,3-c]quinoline-1-propyl carboxylate]
2 | 0.1 to 1 | CCOC(=O)c1c[nH]c2c(=O)[nH]c3ccc(NS(=O)(=O)c4ccc([N+](=O)[O-])cc4)cc3c12 [Compound 53, 8-(4-Nitro-benzenesulfonylamino)-4-oxo-4,5-dihydro-3H-pyrrolo[2,3-c]quinoline-1-ethyl carboxylate]
3 | < 0.1 | CCOC(=O)c1c[nH]c2c(=O)[nH]c3ccc(S(=O)(=O)Nc4ccccc4C)cc3c12 [Compound 4, 4-Oxo-8-o-tolylsulfamoyl-4,5-dihydro-3H-pyrrolo[2,3-c]quinoline-1-ethyl carboxylate]
4 | 0.1 to 1 | C#CCN(C[C@@H]1CCCN1C)S(=O)(=O)c1ccc2[nH]c(=O)c3[nH]cc(C(=O)OCCC)c3c2c1 [Compound 151, (S)-8-[(1-Methyl-pyrrolidin-2-ylmethyl)-prop-2-ynyl-sulfamoyl]-4-oxo-4,5-dihydro-3H-pyrrolo[2,3-c]quinoline-1-propyl carboxylate]
5 | < 0.1 | CCCOC(=O)c1c[nH]c2c(=O)[nH]c3ccc(S(=O)(=O)N(CCO)C4CC4)cc3c12 [Compound 174, 8-[Cyclopropyl-(2-hydroxy-ethyl)-sulfamoyl]-4-oxo-4,5-dihydro-3H-pyrrolo[2,3-c]quinoline-1-propyl carboxylate]
6 | 1 to 10 | CCOC(=O)c1c[nH]c2c(=O)[nH]c3ccc(-c4ccc(OC)cc4)cc3c12 [Compound 246, 8-(4-Methoxy-phenyl)-4-oxo-4,5-dihydro-3H-pyrrolo[2,3-c]quinoline-1-ethyl carboxylate]
7 | 10 to 100 | NC(=O)C1CCCN(S(=O)(=O)c2ccc3[nH]c(=O)c4[nH]cc(C(=O)O)c4c3c2)C1 (stereo not shown) [Compound 180, 8-(3-Carbamoyl-piperidine-1-sulfonyl)-4-oxo-4,5-dihydro-3H-pyrrolo[2,3-c]quinoline-1-carboxylic acid]
8 | 0.1 to 1 | CCOC(=O)c1c[nH]c2c(=O)[nH]c3ccc(CCC(C)(C)O)cc3c12 [Compound 208, 8-(3-Hydroxy-3-methyl-butyl)-4-oxo-4,5-dihydro-3H-pyrrolo[2,3-c]quinoline-1-ethyl carboxylate]
9 | 0.1 to 1 | CN1CCC(NS(=O)(=O)c2ccc3[nH]c(=O)c4[nH]cc(C(=O)OC5CCCC5)c4c3c2)CC1 [Compound 119, 8-(q-Methyl-piperidin-4-ylsulfamoyl)-4-oxo-4,5-dihydro-3H-pyrrolo[2,3-c]quinoline-1-cyclopentyl carboxylate]
10 | 1 to 10 | CCOC(=O)c1c[nH]c2c(=O)[nH]c3cc(OC)c(OC)cc3c12 [Compound 72, 7,8-Dimethoxy-4-oxo-4,5-dihydro-3H-pyrrolo[2,3-c]quinoline-1-ethyl carboxylate]
11 | 1 to 10 | CCOC(=O)c1c[nH]c2c(=O)[nH]c3ccc(/C=C/C(=O)NCCC(=O)OC)cc3c12 [Compound 69, 8-[2-(2-Methoxycarbonyl-ethylcarbamoyl)-vinyl]-4-oxo-4,5-dihydro-3H-pyrrolo[2,3-c]quinoline-1-ethyl carboxylate]
12 | 0.1 to 1 | CCOC(=O)c1c[nH]c2c(=O)[nH]c3ccc(S(=O)(=O)Nc4cccc(O)c4)cc3c12 [Compound 15, 8-(3-Hydroxy-phenylsulfamoyl)-4-oxo-4,5-dihydro-3H-pyrrolo[2,3-c]quinoline-1-ethyl carboxylate]
13 | < 0.1 | CCOC(=O)c1c[nH]c2c(=O)[nH]c3ccc(S(=O)(=O)Nc4cccc(F)c4C)cc3c12 [Compound 16, 8-(3-Fluoro-2-methyl-phenylsulfamoyl)-4-oxo-4,5-dihydro-3H-pyrrolo[2,3-c]quinoline-1-ethyl carboxylate]
14 | 1 to 10 | COC(=O)c1c[nH]c2c(=O)[nH]c3ccc(S(=O)(=O)NC4CCCC4)cc3c12 [Compound 92, 8-Cyclopentylsulfamoyl-4-oxo-4,5-dihydro-3H-pyrrolo[2,3-c]quinoline-1-methyl carboxylate]
15 | 1 to 10 | COC(=O)c1c[nH]c2c(=O)[nH]c3ccc(S(=O)(=O)NN4CC5CCCC5C4)cc3c12 (stereo not shown) [Compound 192, 8-(Hexahydro-cyclopenta[c]pyrrol-2-ylsulfamoyl)-4-oxo-4,5-dihydro-3H-pyrrolo[2,3-c]quinoline-1-methyl carboxylate]
16 | 0.1 to 1 | CCOC(=O)c1c[nH]c2c(=O)[nH]c3ccc(S(=O)(=O)N4CCOCC4)cc3c12 [Compound 28, 8-(Morpholine-4-sulfonyl)-4-oxo-4,5-dihydro-3H-pyrrolo[2,3-c]quinoline-1-ethyl carboxylate]
17 | 0.1 to 1 | C#CCN(CCO)S(=O)(=O)c1ccc2[nH]c(=O)c3[nH]cc(C(=O)OCCC)c3c2c1 [Compound 175, 8-[(2-Hydroxy-ethyl)-prop-2-ynyl-sulfamoyl]-4-oxo-4,5-dihydro-3H-pyrrolo[2,3-c]quinoline-1-propyl carboxylate]
18 | 0.1 to 1 | CCOC(=O)c1c[nH]c2c(=O)[nH]c3ccc(NS(=O)(=O)c4cccc(Cl)c4)cc3c12 [Compound 41, 8-(3-Chloro-benzenesulfonylamino)-4-oxo-4,5-dihydro-3H-pyrrolo[2,3-c]quinoline-1-ethyl carboxylate]
19 | 0.1 to 1 | CCOC(=O)c1c[nH]c2c(=O)[nH]c3ccc(-c4cccc(NC(C)=O)c4)cc3c12 [Compound 236, 8-(3-Acetylaminophenyl)-4-oxo-4,5-dihydro-3H-pyrrolo[2,3-c]quinoline-1-ethyl carboxylate]
20 | 1 to 10 | CC(C)COC(=O)c1c[nH]c2c(=O)[nH]c3ccc(I)cc3c12 [Compound 212, 8-Iodo-4-oxo-4,5-dihydro-3H-pyrrolo[2,3-c]quinoline-1-isobutyl carboxylate]
21 | 10 to 100 | CCOC(=O)c1c[nH]c2c(=O)[nH]c3ccc(NS(=O)(=O)c4cccc(C)c4)cc3c12 [Compound 48, 4-Oxo-8-(3-toluenesulfonylamino)-4,5-dihydro-3H-pyrrolo[2,3-c]quinoline-1-ethyl carboxylate]
22 | 0.1 to 1 | CCOC(=O)c1c[nH]c2c(=O)[nH]c3cc(Cl)c(-c4cccc(S(C)(=O)=O)c4)cc3c12 [Compound 257, 7-Chloro-8-(3-methanesulfonyl-phenyl)-4-oxo-4,5-dihydro-3H-pyrrolo[2,3-c]quinoline-1-ethyl carboxylate]
23 | 0.1 to 1 | CCOC(=O)c1c[nH]c2c(=O)[nH]c3ccc(S(=O)(=O)N4CCC[C@H]4CN4CCCC4)cc3c12 [Compound 163, (S)-4-Oxo-8-(2-pyrrolidin-1-ylmethyl-pyrrolidine-1-sulfonyl)-4,5-dihydro-3H-pyrrolo[2,3-c]quinoline-1-ethyl carboxylate]
24 | 1 to 10 | CC(C)COC(=O)c1c[nH]c2c(=O)[nH]c3ccc(-c4cccc(S(C)(=O)=O)c4)cc3c12 [Compound 255, 8-(3-Methanesulfonyl-phenyl)-4-oxo-4,5-dihydro-3H-pyrrolo[2,3-c]quinoline-1-isobutyl carboxylate]
25 | 10 to 100 | CC(=O)c1c[nH]c2c(=O)[nH]c3ccccc3c12 [Compound 77, 1-Acetyl-3,5-dihydro-pyrrolo[2,3-c]quinolin-4-one]
26 | 1 to 10 | CCOC(=O)c1c[nH]c2c(=O)[nH]c3ccc(-c4ccnc(N5CCN(c6ccccn6)CC5)n4)cc3c12 [Compound 265, 4-Oxo-8-[2-(4-pyridin-2-yl-piperazin-1-yl)-pyrimidin-4-yl]-4,5-dihydro-3H-pyrrolo[2,3-c]quinoline-1-ethyl carboxylate]
27 | 1 to 10 | CCOC(=O)c1c[nH]c2c(=O)[nH]c3ccc(NC(C)=O)cc3c12 [Compound 61, 8-Acetylamino-4-oxo-4,5-dihydro-3H-pyrrolo[2,3-c]quinoline-1 ethyl carboxylate]
28 | 0.1 to 1 | CCOC(=O)c1c[nH]c2c(=O)[nH]c3ccc(S(=O)(=O)Nc4ccc(OC)cc4)cc3c12 [Compound 9, 8-(4-Methoxy-phenylsulfamoyl)-4-oxo-4,5-dihydro-3H-pyrrolo[2,3-c]quinoline-1-ethyl carboxylate]
29 | 0.1 to 1 | CCCOC(=O)c1c[nH]c2c(=O)[nH]c3ccc(-c4cccc(S(C)(=O)=O)c4)cc3c12 [Compound 254, 8-(3-Methanesulfonyl-phenyl)-4-oxo-4,5-dihydro-3H-pyrrolo[2,3-c]quinoline-1-propyl carboxylate]

Row | Structure (SMILES) | IC50 [µM]
30 | CCOC(=O)c1c[nH]c2c(=O)[nH]c3ccc(-c4ccc(NC(=O)OC(C)(C)C)cc4)cc3c12 [Compound 243, 8-(4-tert-Butoxycarbonylaminophenyl)-4-oxo-4,5-dihydro-3H-pyrrolo[2,3-c]quinoline-1-ethyl carboxylate] | 1 to 10
31 | CCCOC(=O)c1c[nH]c2c(=O)[nH]c3ccc(S(=O)(=O)N(C[C@H]4CCCN4C(=O)OC(C)(C)C)C4CC4)cc3c12 [Compound 147, (R)-8-[(1-tert-Butoxycarbony-pyrrolidin-2-ylmethyl)-cyclopropyl-sulfamoyl]-4-oxo-4,5-dihydro-3H-pyrrolo[2,3-c]quinoline-1-propyl carboxylate] | 1 to 10
32 | CCCOC(=O)c1c[nH]c2c(=O)[nH]c3ccc(S(=O)(=O)N(C[C@@H](C)NC(=O)OC(C)(C)C)C4CC4)cc3c12 [Compound 154, (R)-8-[(2-tert-Butoxycarbonylamino-propyl)-cyclopropyl-sulfamoyl]-4-oxo-4,5-dihydro-3H-pyrrolo[2,3-c]quinoline-1-propyl carboxylate] | 1 to 10
33 | CCCOC(=O)c1c[nH]c2c(=O)[nH]c3ccc(S(=O)(=O)N(C)CCN(C)C(=O)OC(C)(C)C)cc3c12 [Compound 140, 8-{[2-(tert-Butoxycarbonyl-methyl-amino)-ethyl]-methyl-sulfamoyl}-4-oxo-4,5-dihydro-3H-pyrrolo[2,3-c]quinoline-1-propyl carboxylate] | 1 to 10
34 | CCCOC(=O)c1c[nH]c2c(=O)[nH]c3ccc(S(=O)(=O)N4CC[C@H](NC(=O)OC(C)(C)C)C4)cc3c12 [Compound 164, (S)-8-(3-tert-Butoxycarbonylamino-pyrrolidine-1-sulfonyl)-4-oxo-4,5-dihydro-3H-pyrrolo[2,3-c]quinoline-1-propyl carboxylate] | 1 to 10
